These results are taken from US20210003580A1, “METHODS OF DETECTION AND TREATMENT OF HYPER TRANSCRIPTION DISEASES” (BOARD OF REGENTS OF THE UNIVERSITY OF TEXAS SYSTEM, priority 2018, published 2021).

The subject of one assay is EwS cell lines. The assay is described as follows: Cell viability (Celltiter-Glo) after drug exposure, EwS cell lines vs controls. The assay is classed as cell-based, human. The settings on record: cell viability measured after 72 hours exposure, compared to controls IMR90 / U2OS. The protocol:
Cell culture and transfections. Ewing sarcoma cell lines (TC32, CHLA10 and CHLA258) were obtained from Children's Oncology Group and EWS502 was obtained from Dr. Lessnick. Of note, TC32 is highly chemosensitive and CHLA10 was derived from a post-treatment recurrent chemoresistant tumor (Table 1). As controls, IMR90 (primary human neonatal fibroblast) and U2OS (pediatric Osteosarcoma) cell lines were obtained from ATCC. IMR90 and U2OS were cultured in DMEM (Corning), TC32, EWS502, RDES in […] (Corning), SKES1 in McCoys (Corning) and CHLA10, CHLA258 in IMDM (HyClone); all cultured media were supplemented with 10% FBS (Atlanta Biologicals) and 1% antibiotic/antimycotic solution (Corning). Cells were maintained at 37° C. in a humidified atmosphere with 5% CO2 and tested for mycoplasma contamination.
(§1) Cell viability. Cells were seeded at 30% confluence in 96 or 384 well plates with or without reverse transfection with siRNA. For plasmid expression, cells were transfected in 60 mm dishes first and then split into 96 or 384 well plates. The following day, the cells were treated to different drugs/inhibitors and cell viability was evaluated after 48 to 72 hours using Celltiter-Glo (Promega). Each condition was tested in triplicate. […] Drug screening data from an independently published study was obtained from http://www.cancerrxgene.org/.

A further assay has as its system IMR90 cells. The assay is described as follows: Transcription recovery assay (EU incorporation), IMR90. Format: cell-based, human. The settings on record: exposed for 2 or 16 hours, 30 min EU labeling. As to the method:
(§2) Transcription Recovery Assay. […] Post-incubation, cells were fixed, permeabilized and subjected to Click-iT RNA reaction (Click-iT RNA Alexa Flour […] Imaging kit, ThermoFisher Scientific) according to manufacturer's instructions. Washed coverslips were mounted onto glass slides using ProLong Antifade Mounting Solution with DAPI (ThermoFisher Scientific) and imaged using a Zeiss microscope at 63×. A minimum of 100 cells were analyzed for each condition. Image analysis was performed using ImageJ.

The test system of the next assay is TC32 cells. The experiment in a line: Transcription recovery assay (EU incorporation), TC32. Format: cell-based, human. The settings on record: exposed for 2 or 16 hours, 30 min EU labeling. The protocol: as §2
Assay [1] has as its system U2OS cells with EWSR1 knockdown. The experiment in a line: Cell viability, EWSR1-depleted U2OS cells. Format: cell-based, human. The settings on record: U2OS siEWSR1 relative to U2OS siCtrl; 72 hours. The protocol:
(§3) All transfections were carried out using Lipofectamine RNAiMax, Lipofectamine 3000 (Invitrogen) following manufacturer's instructions. For RNASEH1 transfections, 3×10^6 TC32 cells were transfected with 13 μg of plasmid DNA using Amaxa nucleofection (program X-001). Gene knockdowns were performed by reverse transfection whereas plasmid transfections were performed 24 hours after seeding. The siRNAs used in this study include: BRCA1 and EWSR1 (Life Technologies), EWSR1, BRCA1, FLI1, FUS, TAF15, 53BP1, FANCA, FANCD2 and FANCI (Santa Cruz). For some experiments, lentiviral transduction of TC32 with shCtrl (clone RHZ4743, Life Technologies) or shFLI1 (clone V2THS227524 or V3THS414176, Life Technologies) was performed. EWS-FLI1, EWS-FLI1 R2L2, EWS-ERG, EWSR1 (full length) and shEWSR1 in pMSCV vector were obtained from Dr. Stephen Lessnick. EWSR1 N terminal domain in pLX304 vector was purchased from DNASU. GFP-RNASEH1 and FLAG-RNASEH1 plasmids were a kind gift from Dr. Robert Crouch (Eunice Kennedy Shriver National Institute of Child Health and Human Development). HA-BRCA1 was obtained from Dr. Yuzuru Shiio (UTH-SA). ISceI in pCAGGS vector was a kind gift from Dr. Maria Jasin (Memorial Sloan Kettering Cancer Center) and Dr. Jeremy Stark (City of Hope Cancer Center). All siRNA and plasmid transfections were accompanied with control siRNA or empty vector respectively.
as §1

Assay [2] concerns U2OS cells transfected with EWS-FLI1. The assay is described as follows: Cell viability, U2OS cells transfected with EWS-FLI1 vs empty vector. The assay is classed as cell-based, human. The settings on record: compared to empty vector (EV) transfected cells. As to the method: as §3, with “ISceI in pCAGGS vector was a kind gift from Dr. Maria Jasin (Memorial Sloan Kettering Cancer Center) and Dr. Jeremy Stark (City of Hope Cancer Center). All siRNA and plasmid transfections were accompanied with control siRNA or empty vector respectively.” left out
Cell viability. […] The following day, the cells were treated to different drugs/inhibitors and cell viability was evaluated after 48 to 72 hours using Celltiter-Glo (Promega). […]

The target of another assay is T1, CDK9/cyclin T1 (Homo sapiens, UniProt P50750).
T1 construct: purchased ThermoFisher Scientific PV4131
The experiment in a line: In vitro RNAPII phosphorylation assay (Adapta kinase assay), CDK9. The assay is classed as biochemical. The settings on record: 1 μM recombinant protein; substrates CDKtide or RNAPII CTD fragment; relative to vehicle. The protocol: In vitro RNAPII phosphorylation assay. The following purified recombinant proteins were purchased: RNAPII CTD fragment (POLR2A-1149H, Creative BioMart), EWSR1 (TP303709, Origene), FUS (TP301808, Origene), CDK9/cyclin T1 (PV4131, ThermoFisher Scientific) and CDK7/cyclin H/MNAT1 (ab64303, Abcam). The in vitro kinase assay was performed using the Adapta kinase assay (PV5099, ThermoFisher Scientific) according to manufacturer's instructions. The template used for kinase activity was either 50 μM CDK7/9tide provided in the kit (PV5090, ThermoFisher Scientific), or 12 ng RNAPII CTD fragment. 1 μM EWSR1 or FUS was added to the substrate and 10 μM ATP kinase buffer and pre-incubated for 15 min. 1.77 μg/ml CDK9/cyclin T1 or 5.6 μg/ml CDK7/cyclin H/MNAT1 were then added and the kinase reaction was allowed to proceed for a further 45 minutes. 10 μM ADP and 10 μM ATP served positive and negative controls. Finally, Eu-labeled antibody and Alexa Fluor-647-labeled tracer added and the level of ATP consumption was measured 30 minutes later using BMG Labtech Pherastar microplate reader. Each condition was tested in quadruplicate and the overall experiment was repeated at least 3 times for independent validation.

T1 sequence (P50750 whole entry): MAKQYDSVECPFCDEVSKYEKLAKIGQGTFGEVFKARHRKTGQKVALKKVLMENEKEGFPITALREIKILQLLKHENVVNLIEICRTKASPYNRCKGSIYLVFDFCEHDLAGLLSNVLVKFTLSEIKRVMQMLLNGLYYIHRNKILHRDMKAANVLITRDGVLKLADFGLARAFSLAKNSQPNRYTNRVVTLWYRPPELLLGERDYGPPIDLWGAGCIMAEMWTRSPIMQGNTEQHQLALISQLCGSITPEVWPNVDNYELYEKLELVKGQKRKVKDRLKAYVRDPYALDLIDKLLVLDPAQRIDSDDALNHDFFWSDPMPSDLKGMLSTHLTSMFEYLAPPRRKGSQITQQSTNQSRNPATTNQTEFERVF
T1 sequence (O60563 whole entry partner): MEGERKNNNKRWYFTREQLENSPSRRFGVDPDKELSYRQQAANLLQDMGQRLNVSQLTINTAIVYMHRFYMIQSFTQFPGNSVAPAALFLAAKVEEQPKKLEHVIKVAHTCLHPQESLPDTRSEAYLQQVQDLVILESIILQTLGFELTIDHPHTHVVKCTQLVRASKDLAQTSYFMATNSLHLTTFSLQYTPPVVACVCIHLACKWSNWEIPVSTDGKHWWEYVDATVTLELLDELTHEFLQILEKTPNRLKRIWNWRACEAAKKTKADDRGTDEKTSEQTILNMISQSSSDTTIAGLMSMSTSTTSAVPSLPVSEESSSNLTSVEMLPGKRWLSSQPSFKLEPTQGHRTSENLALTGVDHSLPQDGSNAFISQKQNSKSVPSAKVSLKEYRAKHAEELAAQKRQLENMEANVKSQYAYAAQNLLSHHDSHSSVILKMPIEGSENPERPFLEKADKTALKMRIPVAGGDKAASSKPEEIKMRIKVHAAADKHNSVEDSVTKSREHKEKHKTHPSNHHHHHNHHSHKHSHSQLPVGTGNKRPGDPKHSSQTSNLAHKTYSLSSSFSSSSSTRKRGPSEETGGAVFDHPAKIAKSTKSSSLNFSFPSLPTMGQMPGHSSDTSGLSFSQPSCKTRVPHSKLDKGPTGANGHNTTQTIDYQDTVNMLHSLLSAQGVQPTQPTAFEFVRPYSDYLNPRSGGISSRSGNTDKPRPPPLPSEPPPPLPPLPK

As for `NC(=O)NO` [hydroxyurea], the “sensitivity (cell viability) of EwS cell lines compared to controls” value (shortened to “sensitivity … compared to controls”) with EwS cell lines is recorded as “acutely sensitive”.

As for `COc1cc([C@@H]2c3cc4c(cc3[C@@H](O[C@@H]3O[C@@H]5CO[C@@H](C)O[C@H]5[C@H](O)[C@H]3O)[C@H]3COC(=O)[C@H]23)OCO4)cc(OC)c1O` [etoposide], in the assay on EwS cell lines, the “sensitivity … compared to controls” value is “acutely sensitive”. The “transcriptional activity (EU incorporation) after exposure” value in the assay on IMR90 cells was “decrease in EU incorporation two hours post-damage followed by recovery at 16 hours”; in the assay on TC32 cells, “much delayed loss of transcription”.

On to `CC[C@@]1(O)C(=O)OCc2c1cc1n(c2=O)Cc2cc3ccccc3nc2-1` [camptothecin], for which, in the assay with EwS cell lines, the “sensitivity … compared to controls” value was “much more sensitive”. The “sensitivity (cell viability) of EWSR1-depleted U2OS cells” value in assay [1] is reported as “much more sensitive”. With `OC[C@H]1O[C@@H](n2cnc3cc(Cl)c(Cl)cc32)[C@H](O)[C@@H]1O` [DRB, 5,6-dichloro-1-β-D-ribofuranosyl-1H-benzimidazole], in the assay with EwS cell lines, the “sensitivity … compared to controls” value was “much more sensitive”. The “sensitivity (cell viability) of EWSR1-depleted U2OS cells” value in assay [1] is given as “much more sensitive”. As to `O=c1c2ccccc2sn1-c1ccccc1` [R11], the “sensitivity … compared to controls” value in the assay on EwS cell lines is listed as “significantly higher sensitivity”. Regarding `O=C(c1cc(Cc2n[nH]c(=O)c3ccccc23)ccc1F)N1CCN(C(=O)C2CC2)CC1` [Olaparib], the entries for the “sensitivity … compared to controls” value in the assay with EwS cell lines and in the assay on EwS cell lines (listed as olaparib) were “exquisite sensitivity” and “acutely sensitive”, respectively. Besides, the “sensitivity (cell viability) of U2OS cells expressing EWS-FLI1” value in assay [2] is “exquisite sensitivity”. For `CS(=O)(=O)c1ccc(-c2cnc(N)c(C(=O)Nc3ccccc3)n2)cc1` [VE-821], in the assay with EwS cell lines, the “sensitivity … compared to controls” value is recorded as “significantly more sensitive”. The “sensitivity (cell viability) of EWSR1-depleted U2OS cells” value in assay [1] is reported as “significantly more sensitive”. Moreover, the “sensitivity (cell viability) of U2OS cells expressing EWS-FLI1” value in assay [2] is listed as “significantly more sensitive”.

B1: EWSR1: purified recombinant EWSR1 protein (TP303709, Origene) (protein, UniProt Q01844 1-656, looked up)
RNA-binding protein EWS: MASTDYSTYSQAAAQQGYSAYTAQPTQGYAQTTQAYGQQSYGTYGQPTDVSYTQAQTTATYGQTAYATSYGQPPTGYTTPTAPQAYSQPVQGYGTGAYDTTTATVTTTQASYAAQSAYGTQPAYPAYGQQPAATAPTRPQDGNKPTETSQPQSSTGGYNQPSLGYGQSNYSYPQVPGSYPMQPVTAPPSYPPTSYSSTQPTSYDQSSYSQQNTYGQPSSYGQQSSYGQQSSYGQQPPTSYPPQTGSYSQAPSQYSQQSSSYGQQSSFRQDHPSSMGVYGQESGGFSGPGENRSMSGPDNRGRGRGGFDRGGMSRGGRGGGRGGMGSAGERGGFNKPGGPMDEGPDLDLGPPVDPDEDSDNSAIYVQGLNDSVTLDDLADFFKQCGVVKMNKRTGQPMIHIYLDKETGKPKGDATVSYEDPPTAKAAVEWFDGKDFQGSKLKVSLARKKPPMNSMRGGLPPREGRGMPPPLRGGPGGPGGPGGPMGRMGGRGGDRGGFPPRGPRGSRGNPSGGGNVQHRAGDWQCPNPGCGNQNFAWRTECNQCKAPKPEGFLPPPFPPPGGDRGRGGPGGMRGGRGGLMDRGGPGGMFRGGRGGDRGGFRGGRGMDRGGFGGGRRGGPGGPPGPLMEQMGGRRGGRGGPGKMDKGEHRQERRDRPY
For B1, the “inhibition of phosphorylation of RNAPII CTD by CDK9” value with CDK9/cyclin T1 was “inhibited”.

B2: FUS: purified recombinant FUS protein (TP301808, Origene) (protein, UniProt P35637 1-526, looked up)
RNA-binding protein FUS: MASNDYTQQATQSYGAYPTQPGQGYSQQSSQPYGQQSYSGYSQSTDTSGYGQSSYSSYGQSQNTGYGTQSTPQGYGSTGGYGSSQSSQSSYGQQSSYPGYGQQPAPSSTSGSYGSSSQSSSYGQPQSGSYSQQPSYGGQQQSYGQQQSYNPPQGYGQQNQYNSSSGGGGGGGGGGNYGQDQSSMSSGGGSGGGYGNQDQSGGGGSGGYGQQDRGGRGRGGSGGGGGGGGGGYNRSSGGYEPRGRGGGRGGRGGMGGSDRGGFNKFGGPRDQGSRHDSEQDNSDNNTIFVQGLGENVTIESVADYFKQIGIIKTNKKTGQPMINLYTDRETGKLKGEATVSFDDPPSAKAAIDWFDGKEFSGNPIKVSFATRRADFNRGGGNGRGGRGRGGPMGRGGYGGGGSGGGGRGGFPSGGGGGGGQQRAGDWKCPNPTCENMNFSWRNECNQCKAPKPDGPGGGPGGSHMGGNYGDDRRGGRGGYDRGGYRGRGGDRGGFRGGRGGGDRGGFGPGKMDSRGEHRQDRRERPY
Consider B2, for which the “inhibition of phosphorylation of RNAPII CTD by CDK9” value with CDK9/cyclin T1 was “inhibited”.
